The values that follow come from ChEMBL document CHEMBL1201862, “PubChem BioAssay data set” (2004).

Some test systems named below: KM-20L2; M19-MEL; RXF 631; DLD-1; HOP-18; LXFL 529; DMS-114; DMS-273; XF498.
What all share (assay): growth of human tumour cells (NCI), 48 h

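Results reflect a 48-hour exposure of cells in 96-well plates to compound at five concentrations. GI50 marks 50% less growth.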 Active and inactive are the calls of the source. Cut-off read from the data, not from the text of the source: active = GI50 up to about 1.1 µM and inactive = higher.

On to `O=C(Nc1c(O)[nH]c(=S)[nH]c1=O)c1ccccc1F`, for which the GI50 with KM-20L2, with M19-MEL, in the test with RXF 631, with DLD-1, in the test with HOP-18 and with LXFL 529 was > 100 µM (inactive) in each case. Also, in the test with DMS-114, the GI50 was > 100 µM (inactive).

Regarding `COC(=O)C12C34C=CC5(CCC6(C=CC1(CC3)O6)C52C(=O)OC)O4` (stereo not drawn), the GI50 is > 100 µM (inactive) in the test with DMS-273; > 100 µM (inactive) in the test on KM-20L2; > 100 µM (inactive) in the test on M19-MEL; > 100 µM (inactive) with RXF 631; 46.8 µM (inactive) in the test on XF498; > 100 µM (inactive) with HOP-18. Besides, in the test with LXFL 529, the GI50 is > 100 µM (inactive).

Consider `C/C(=N/NC(=O)C(N)=O)C(CC(C(=O)Nc1ccccc1C)/C(C)=N\NC(=O)C(N)=O)C(=O)Nc1ccccc1C` (stereo not drawn), for which the GI50 with KM-20L2, in the test on M19-MEL, with DLD-1 and in the test on LXFL 529 was > 100 µM (inactive) each time.

For the compound `CCOc1ccc(NC(=O)CCc2nnc(SC)o2)cc1`, the GI50 in the test on DMS-273, in the test on KM-20L2, in the test with M19-MEL, in the test on DLD-1, in the test on HOP-18 and with LXFL 529 was > 100 µM (inactive) each time. The GI50 in the test on DMS-114 is > 100 µM (inactive).

As to `C=CCCCCCCCCCCCC1CCC(CC)N1` (stereo not drawn), the GI50 in the test on DMS-273 was 2.33 µM (inactive); in the test with KM-20L2, 4.04 µM (inactive); with M19-MEL, 5.15 µM (inactive); with RXF 631, 6.19 µM (inactive); in the test on DLD-1 it was 3.72 µM (inactive); in the test on HOP-18 it was 12.6 µM (inactive). Also, the GI50 in the test on LXFL 529 is 12.7 µM (inactive); with DMS-114 it was 5 µM (inactive).

Take `COc1ccccc1NC(=O)C1=C(C)NC(C)=C(C(=O)Nc2ccccc2OC)C1c1ccco1`: the GI50 is 4.14 µM (inactive) in the test with DMS-273; 3.76 µM (inactive) in the test on KM-20L2; 4.63 µM (inactive) in the test with M19-MEL; 6.18 µM (inactive) in the test with RXF 631; 6.01 µM (inactive) with XF498; 4.27 µM (inactive) in the test on DLD-1. In addition, the GI50 in the test on HOP-18 is 3.31 µM (inactive); with LXFL 529, 5.15 µM (inactive); in the test on DMS-114, 2.87 µM (inactive).

As for `CCCCCCCCCCCCCCCCOC(=O)c1cc(O)cc(C(=O)OCCCCCCCCCCCCCCCC)c1`, the GI50 in the test with DMS-273, in the test with KM-20L2, in the test with M19-MEL, in the test with RXF 631, with HOP-18 and with LXFL 529 was > 100 µM (inactive) throughout. Further, in the test with DMS-114, the GI50 is > 100 µM (inactive).

As for `Cc1cc(C)c(C(=O)/C(=C/c2ccccc2)c2ccccc2)c(C)c1`, the GI50 in the test on KM-20L2 is 42.2 µM (inactive); in the test on M19-MEL, 39.9 µM (inactive); with RXF 631 it was 29.9 µM (inactive); in the test with XF498, 19.2 µM (inactive); in the test on DLD-1, > 100 µM (inactive); in the test with HOP-18 it was > 100 µM (inactive). Moreover, the values for the GI50 in the test with LXFL 529 and with DMS-114 were 34.8 µM (inactive) and 35.6 µM (inactive), respectively.

`Cc1c(/N=C\c2ccc(N(CCC#N)CCC#N)cc2)c(=O)n(-c2ccccc2)n1C`: the GI50 with DMS-273 was > 88.5 µM (inactive); with KM-20L2, > 100 µM (inactive); in the test on M19-MEL, > 100 µM (inactive); in the test with XF498 it was 28 µM (inactive); in the test with DLD-1, > 100 µM (inactive); with HOP-18, 25.2 µM (inactive). Moreover, the GI50 in the test on LXFL 529 and in the test with DMS-114 was > 100 µM (inactive) throughout.

Take `CCSC1=CC(Cc2ccc(OC)cc2)N(C(=O)OC)C1` (stereo not drawn): the GI50 in the test on DMS-273 is 70 µM (inactive); in the test on KM-20L2 it was > 100 µM (inactive); in the test on M19-MEL, > 100 µM (inactive); in the test on RXF 631, > 100 µM (inactive); in the test on XF498, > 100 µM (inactive); in the test on DLD-1, 81.8 µM (inactive). For the same compound, the GI50 in the test with HOP-18 was > 100 µM (inactive); with LXFL 529, 91.4 µM (inactive); with DMS-114 it was 23.4 µM (inactive).

On to `Cc1nc(C)c(C(=O)Nc2cccc3c2C(=O)NC3=O)cc1C(=O)Nc1cccc2c1C(=O)NC2=O`, for which the GI50 with DMS-273, with KM-20L2, in the test with M19-MEL, in the test on XF498, with DLD-1 and with HOP-18 was > 100 µM (inactive) throughout. The GI50 with LXFL 529 and with DMS-114 was > 100 µM (inactive) each time.

Regarding `Cc1cc(-c2ccccc2)cc2[n+]1CC=C2.[O-][Cl+3]([O-])([O-])[O-]`, the GI50 in the test on DMS-273 was 46.7 µM (inactive); in the test on KM-20L2 it was > 100 µM (inactive); in the test with M19-MEL, > 100 µM (inactive); in the test with DLD-1 it was 58.5 µM (inactive); with HOP-18, < 0.01 µM (active); in the test on LXFL 529 it was 58.3 µM (inactive). Further, the GI50 with DMS-114 was 77.4 µM (inactive).

For `S=c1sc2c(S)nc(S)nc2n1-c1ccccc1`, the GI50 in the test on DMS-273, in the test with KM-20L2, with M19-MEL, with XF498, in the test with DLD-1 and in the test on HOP-18 was > 100 µM (inactive) in each case. Also, the GI50 is > 100 µM (inactive) in the test on LXFL 529 and 75.5 µM (inactive) with DMS-114.

`O=C1C2C3C=C4c5ccccc5N(c5ccccc5)C4(C2C(=O)N1c1ccc(Br)cc1)[C@H]1C(=O)N(c2ccc(Br)cc2)C(=O)[C@@H]31` (stereo partly drawn): the GI50 with DMS-273 was > 100 µM (inactive); in the test on KM-20L2, > 100 µM (inactive); in the test with XF498 it was > 100 µM (inactive); in the test on DLD-1, > 100 µM (inactive); in the test on HOP-18, > 100 µM (inactive); in the test with LXFL 529, 83.8 µM (inactive).

Take `COC(=O)[C@@]12OC[C@]34C([C@@H](O)C1O)[C@@]1(C)CC(=O)C(OC(=O)/C=C(/c5ccccc5)C(F)(F)F)=C(C)C1C[C@H]3OC(=O)[C@H](O)[C@H]42` (stereo partly drawn): the GI50 in the test on DMS-273 is 3.44 µM (inactive); in the test with KM-20L2, 8.61 µM (inactive); in the test with M19-MEL, 5.08 µM (inactive); in the test with XF498, 9.82 µM (inactive); with DLD-1, 7.41 µM (inactive); in the test on HOP-18, 30.1 µM (inactive). The results for the GI50 in the test with LXFL 529 and in the test on DMS-114 were 7.35 µM (inactive) and 4.27 µM (inactive), respectively.

Regarding `CC(C)S(=O)(=O)ON1C(=O)c2ccc([N+](=O)[O-])cc2C1=O`, the GI50 in the test with DMS-273, in the test with M19-MEL, in the test on RXF 631, with XF498, in the test with DLD-1 and in the test on HOP-18 was > 100 µM (inactive) in each case. The GI50 in the test on LXFL 529 and with DMS-114 was > 100 µM (inactive) in each case.

In the case of `COc1cc2c(cc1OC)C(OC)N(C)c1c-2ccc2cc3c(cc12)OCO3` (stereo not drawn), the GI50 with DMS-273 was 1.11 µM (active); with KM-20L2, 0.558 µM (active); with M19-MEL it was 1.19 µM (inactive); in the test on XF498, 0.895 µM (active); with DLD-1, 9.68 µM (inactive); in the test on HOP-18, 21.6 µM (inactive). For the same compound, in the test with DMS-114, the GI50 is 1.17 µM (inactive).

On to `C=C(C)[C@H]1Cc2c(ccc3c2O[C@@H]2COc4cc(OC)c(OC)cc4[C@@H]2C3=O)O1` [ROTENONE], for which the GI50 was 0.0378 µM (active) in the test with DMS-273; 0.128 µM (active) in the test with KM-20L2; 0.0559 µM (active) with M19-MEL; 0.055 µM (active) with XF498; 0.241 µM (active) in the test on DLD-1; 0.0368 µM (active) with LXFL 529. For the same compound, the GI50 in the test on DMS-114 is < 0.01 µM (active).
